Measured values taken from ChEMBL document CHEMBL1135258, “Substrate spectrum of tyrocidine thioesterase probed with randomized peptide N-acetylcysteamine thioesters” (Bioorg Med Chem Lett, 2002).
Values belong to the compound of their own block, whether it stands above or below them.

Legend:
[1] = molecular target: T1, Thioesterase GrsT homolog tycF (Brevibacillus brevis) (UniProt O30412); experiment: Apparent kinetic constant (Kcat) for tyrocidine thioesterase amplified from Bacillus brevis (ATCC8185)
T1 sequence (whole entry): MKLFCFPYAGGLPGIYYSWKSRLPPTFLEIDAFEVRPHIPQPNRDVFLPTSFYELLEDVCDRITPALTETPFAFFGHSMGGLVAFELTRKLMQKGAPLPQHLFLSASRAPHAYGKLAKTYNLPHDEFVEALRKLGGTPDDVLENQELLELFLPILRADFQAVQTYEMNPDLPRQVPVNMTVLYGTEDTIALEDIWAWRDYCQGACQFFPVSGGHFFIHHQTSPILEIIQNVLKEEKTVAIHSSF

[2] = molecular target: T1, Thioesterase GrsT homolog tycF (Brevibacillus brevis); experiment: Catalytic efficiency (Kcat/Km) was determined; parameters: unit not given here

Structure (SMILES): CC(=O)NCCSC(=O)[C@H](CC(C)C)NC(=O)[C@H](CCCN)NC(=O)[C@H](CCCN=C(N)N)NC(=O)[C@H](Cc1ccc(O)cc1)NC(=O)[C@H](CCC(N)=O)NC(=O)[C@H](CC(N)=O)NC(=O)[C@@H](Cc1ccccc1)NC(=O)[C@H](Cc1ccccc1)NC(=O)[C@@H]1CCCN1C(=O)[C@H](N)Cc1ccccc1
k cat [1]: 0.15 s⁻¹
Ratio [2]: 0.28

Structure (SMILES): CC(=O)NCCSC(=O)[C@H](CC(C)C)NC(=O)[C@H](CCCN)NC(=O)[C@@H](NC(=O)[C@H](Cc1ccc(O)cc1)NC(=O)[C@H](CCC(N)=O)NC(=O)[C@H](CC(N)=O)NC(=O)[C@H](Cc1c[nH]c2ccccc12)NC(=O)[C@H](Cc1ccccc1)NC(=O)[C@@H]1CCCN1C(=O)[C@H](N)Cc1ccccc1)C(C)C
k cat [1]: 0.12 s⁻¹
Ratio [2]: 0.95

Structure (SMILES): CC(=O)NCCSC(=O)[C@H](CC(C)C)NC(=O)[C@H](CCCN)NC(=O)[C@@H](NC(=O)[C@H](Cc1ccc(O)cc1)NC(=O)[C@H](CCC(N)=O)NC(=O)[C@@H](NC(=O)[C@@H](Cc1ccccc1)NC(=O)[C@H](Cc1ccccc1)NC(=O)[C@@H]1CCCN1C(=O)[C@H](N)Cc1ccccc1)C(C)C)C(C)C
k cat [1]: 0.12 s⁻¹
Ratio [2]: 0.29

Structure (SMILES): CC(=O)NCCSC(=O)[C@H](CC(C)C)NC(=O)[C@H](CCCN)NC(=O)[C@@H](NC(=O)[C@H](Cc1ccc(O)cc1)NC(=O)[C@H](CCC(N)=O)NC(=O)[C@H](CC(N)=O)NC(=O)[C@@H](Cc1ccccc1)NC(=O)[C@H](Cc1ccccc1)NC(=O)[C@H](CC(=O)O)NC(=O)[C@H](N)Cc1ccccc1)C(C)C
k cat [1]: 0.167 s⁻¹
Ratio [2]: 0.11

Structure (SMILES): CC(=O)NCCSC(=O)[C@H](CC(C)C)NC(=O)[C@H](CCCN)NC(=O)[C@@H](NC(=O)[C@H](Cc1ccc(O)cc1)NC(=O)[C@H](CCC(N)=O)NC(=O)[C@H](CC(N)=O)NC(=O)[C@@H](Cc1ccccc1)NC(=O)[C@H](Cc1ccccc1)NC(=O)[C@H](CC(N)=O)NC(=O)[C@H](N)Cc1ccccc1)C(C)C
k cat [1]: 0.117 s⁻¹
Ratio [2]: 0.084

Structure (SMILES): CC(=O)NCCSC(=O)[C@H](CC(C)C)NC(=O)[C@H](CCCN)NC(=O)[C@@H](NC(=O)[C@H](Cc1ccc(O)cc1)NC(=O)[C@H](CCC(N)=O)NC(=O)[C@H](CC(N)=O)NC(=O)[C@H](Cc1ccccc1)NC(=O)[C@H](Cc1ccccc1)NC(=O)[C@@H]1CCCN1C(=O)[C@H](N)Cc1ccccc1)C(C)C
k cat [1]: 0.105 s⁻¹
Ratio [2]: 1.3

Structure (SMILES): CC(=O)NCCSC(=O)[C@H](CC(C)C)NC(=O)[C@H](CCCN)NC(=O)[C@@H](NC(=O)[C@H](CC(N)=O)NC(=O)[C@H](CCC(N)=O)NC(=O)[C@H](CC(N)=O)NC(=O)[C@@H](Cc1ccccc1)NC(=O)[C@H](Cc1ccccc1)NC(=O)[C@@H]1CCCN1C(=O)[C@H](N)Cc1ccccc1)C(C)C
k cat [1]: 0.333 s⁻¹
Ratio [2]: 2.63

Structure (SMILES): CC(=O)NCCSC(=O)[C@H](CC(C)C)NC(=O)[C@H](CCCN)NC(=O)[C@@H](NC(=O)[C@H](Cc1ccc(O)cc1)NC(=O)[C@H](CC(C)C)NC(=O)[C@H](CC(N)=O)NC(=O)[C@@H](Cc1ccccc1)NC(=O)[C@H](Cc1ccccc1)NC(=O)[C@@H]1CCCN1C(=O)[C@H](N)Cc1ccccc1)C(C)C
k cat [1]: 0.717 s⁻¹
Ratio [2]: 0.32

Structure (SMILES): CC(=O)NCCSC(=O)[C@H](CC(C)C)NC(=O)[C@H](CCCN)NC(=O)[C@H](CCC(N)=O)NC(=O)[C@H](Cc1ccc(O)cc1)NC(=O)[C@H](CCC(N)=O)NC(=O)[C@H](CC(N)=O)NC(=O)[C@@H](Cc1ccccc1)NC(=O)[C@H](Cc1ccccc1)NC(=O)[C@@H]1CCCN1C(=O)[C@H](N)Cc1ccccc1
k cat [1]: 0.233 s⁻¹
Ratio [2]: 0.22

Structure (SMILES): CC(=O)NCCSC(=O)[C@H](CC(C)C)NC(=O)[C@H](CCCN)NC(=O)[C@@H](NC(=O)[C@H](Cc1ccc(O)cc1)NC(=O)[C@H](CC(N)=O)NC(=O)[C@H](CC(N)=O)NC(=O)[C@@H](Cc1ccccc1)NC(=O)[C@H](Cc1ccccc1)NC(=O)[C@@H]1CCCN1C(=O)[C@H](N)Cc1ccccc1)C(C)C
k cat [1]: 1.33 s⁻¹
Ratio [2]: 0.72

Structure (SMILES): CC(=O)NCCSC(=O)[C@H](CC(C)C)NC(=O)[C@H](CCCN)NC(=O)[C@@H](NC(=O)[C@H](Cc1ccc(O)cc1)NC(=O)[C@H](CCC(N)=O)NC(=O)[C@H](CC(C)C)NC(=O)[C@@H](Cc1ccccc1)NC(=O)[C@H](Cc1ccccc1)NC(=O)[C@@H]1CCCN1C(=O)[C@H](N)Cc1ccccc1)C(C)C
k cat [1]: 0.167 s⁻¹
Ratio [2]: 0.23

Structure (SMILES): CC(=O)NCCSC(=O)[C@H](CC(C)C)NC(=O)[C@H](CCCN)NC(=O)[C@@H](NC(=O)[C@H](Cc1ccc(O)cc1)NC(=O)[C@@H](NC(=O)[C@H](CC(N)=O)NC(=O)[C@@H](Cc1ccccc1)NC(=O)[C@H](Cc1ccccc1)NC(=O)[C@@H]1CCCN1C(=O)[C@H](N)Cc1ccccc1)C(C)C)C(C)C
k cat [1]: 0.16 s⁻¹
Ratio [2]: 0.18

Structure (SMILES): CC(=O)NCCSC(=O)[C@H](CC(C)C)NC(=O)[C@H](CCCN)NC(=O)[C@@H](NC(=O)[C@H](Cc1ccc(O)cc1)NC(=O)[C@H](CCC(N)=O)NC(=O)[C@H](CC(N)=O)NC(=O)[C@@H](Cc1ccccc1)NC(=O)[C@H](Cc1ccccc1)NC(=O)[C@@H]1CCCN1C(=O)[C@H](N)Cc1ccccc1)C(C)C (stereo in doubt; form 1)
k cat [1]: 0.733 s⁻¹
Ratio [2]: 4.78

Structure (SMILES): CC(=O)NCCSC(=O)[C@H](CC(C)C)NC(=O)[C@H](CCCN)NC(=O)[C@@H](NC(=O)[C@H](Cc1ccc(O)cc1)NC(=O)[C@H](CCC(N)=O)NC(=O)[C@H](CC(N)=O)NC(=O)[C@@H](Cc1ccccc1)NC(=O)[C@H](Cc1ccccc1)NC(=O)[C@@H]1CCCN1C(=O)[C@H](N)Cc1ccccc1)C(C)C (stereo in doubt; form 2)
k cat [1]: 0.55 s⁻¹
Ratio [2]: 2.65

Other lines, results leading:

k cat [1]: 0.183 s⁻¹
Ratio [2]: 0.6
Structure (SMILES): CC(=O)NCCSC(=O)[C@H](CC(C)C)NC(=O)[C@H](CCCN)NC(=O)[C@@H](NC(=O)[C@H](Cc1ccc(O)cc1)NC(=O)[C@H](CCC(N)=O)NC(=O)[C@H](CC(N)=O)NC(=O)[C@H](C)NC(=O)[C@H](Cc1ccccc1)NC(=O)[C@@H]1CCCN1C(=O)[C@H](N)Cc1ccccc1)C(C)C

k cat [1]: 0.11 s⁻¹
Ratio [2]: 0.57
Structure (SMILES): CC(=O)NCCSC(=O)[C@H](CC(C)C)NC(=O)[C@H](CCCN)NC(=O)[C@@H](NC(=O)[C@H](Cc1ccc(O)cc1)NC(=O)[C@H](CCC(N)=O)NC(=O)[C@H](CC(N)=O)NC(=O)[C@H](CCC(=O)O)NC(=O)[C@H](Cc1ccccc1)NC(=O)[C@@H]1CCCN1C(=O)[C@H](N)Cc1ccccc1)C(C)C

k cat [1]: 0.13 s⁻¹
Ratio [2]: 0.57
Structure (SMILES): CC(=O)NCCSC(=O)[C@H](CC(C)C)NC(=O)[C@H](CCCN)NC(=O)[C@@H](NC(=O)[C@H](Cc1ccc(O)cc1)NC(=O)[C@H](CCC(N)=O)NC(=O)[C@H](CC(N)=O)NC(=O)[C@H](CO)NC(=O)[C@H](Cc1ccccc1)NC(=O)[C@@H]1CCCN1C(=O)[C@H](N)Cc1ccccc1)C(C)C

k cat [1]: 0.183 s⁻¹
Ratio [2]: 0.33
Structure (SMILES): CC[C@H](C)[C@H](NC(=O)[C@H](Cc1ccccc1)NC(=O)[C@@H]1CCCN1C(=O)[C@H](N)Cc1ccccc1)C(=O)N[C@@H](CC(N)=O)C(=O)N[C@@H](CCC(N)=O)C(=O)N[C@@H](Cc1ccc(O)cc1)C(=O)N[C@H](C(=O)N[C@@H](CCCN)C(=O)N[C@@H](CC(C)C)C(=O)SCCNC(C)=O)C(C)C

k cat [1]: 0.233 s⁻¹
Ratio [2]: 0.92
Structure (SMILES): CC(=O)NCCSC(=O)[C@H](CC(C)C)NC(=O)[C@H](CCCN)NC(=O)[C@@H](NC(=O)[C@H](Cc1ccc(O)cc1)NC(=O)[C@H](CCC(N)=O)NC(=O)[C@H](CC(N)=O)NC(=O)[C@H](CCCCN)NC(=O)[C@H](Cc1ccccc1)NC(=O)[C@@H]1CCCN1C(=O)[C@H](N)Cc1ccccc1)C(C)C

k cat [1]: 0.45 s⁻¹
Ratio [2]: 0.19
Structure (SMILES): CC(=O)NCCSC(=O)[C@H](CC(C)C)NC(=O)[C@H](CCCN)NC(=O)[C@@H](NC(=O)[C@H](Cc1ccc(O)cc1)NC(=O)[C@H](CCC(N)=O)NC(=O)[C@H](CC(N)=O)NC(=O)[C@@H](NC(=O)[C@H](Cc1ccccc1)NC(=O)[C@@H]1CCCN1C(=O)[C@H](N)Cc1ccccc1)C(C)C)C(C)C

k cat [1]: 0.2 s⁻¹
Ratio [2]: 0.15
Structure (SMILES): CC(=O)NCCSC(=O)[C@H](CC(C)C)NC(=O)[C@H](CCCN)NC(=O)[C@@H](NC(=O)[C@H](Cc1ccc(O)cc1)NC(=O)[C@H](CCC(N)=O)NC(=O)[C@H](CC(N)=O)NC(=O)[C@H](Cc1c[nH]cn1)NC(=O)[C@H](Cc1ccccc1)NC(=O)[C@@H]1CCCN1C(=O)[C@H](N)Cc1ccccc1)C(C)C

k cat [1]: 0.183 s⁻¹
Ratio [2]: 0.17
Structure (SMILES): CC(=O)NCCSC(=O)[C@H](CC(C)C)NC(=O)[C@H](CCCN)NC(=O)[C@@H](NC(=O)[C@H](Cc1ccc(O)cc1)NC(=O)[C@H](CCC(N)=O)NC(=O)[C@H](CC(N)=O)NC(=O)[C@H](Cc1ccc(O)cc1)NC(=O)[C@H](Cc1ccccc1)NC(=O)[C@@H]1CCCN1C(=O)[C@H](N)Cc1ccccc1)C(C)C

k cat [1]: 0.138 s⁻¹
Ratio [2]: 0.28
Structure (SMILES): CC(=O)NCCSC(=O)[C@H](CC(C)C)NC(=O)[C@H](CCCN)NC(=O)[C@@H](NC(=O)[C@H](Cc1ccc(O)cc1)NC(=O)[C@H](CCC(N)=O)NC(=O)[C@H](CC(N)=O)NC(=O)[C@H](CC(C)C)NC(=O)[C@H](Cc1ccccc1)NC(=O)[C@@H]1CCCN1C(=O)[C@H](N)Cc1ccccc1)C(C)C

k cat [1]: 0.135 s⁻¹
Ratio [2]: 0.26
Structure (SMILES): CC(=O)NCCSC(=O)[C@H](CC(C)C)NC(=O)[C@H](CCCN)NC(=O)[C@@H](NC(=O)[C@H](Cc1ccc(O)cc1)NC(=O)[C@H](CCC(N)=O)NC(=O)[C@H](CC(N)=O)NC(=O)[C@@H](NC(=O)[C@H](Cc1ccccc1)NC(=O)[C@@H]1CCCN1C(=O)[C@H](N)Cc1ccccc1)[C@@H](C)O)C(C)C

k cat [1]: 0.233 s⁻¹
Ratio [2]: 0.083
Structure (SMILES): CC(=O)NCCSC(=O)[C@H](CC(C)C)NC(=O)[C@H](CCCN)NC(=O)[C@@H](NC(=O)[C@H](Cc1ccc(O)cc1)NC(=O)[C@H](CCC(N)=O)NC(=O)[C@H](CC(N)=O)NC(=O)[C@@H](Cc1ccccc1)NC(=O)[C@H](CC(N)=O)NC(=O)[C@@H]1CCCN1C(=O)[C@H](N)Cc1ccccc1)C(C)C

k cat [1]: 0.133 s⁻¹
Ratio [2]: 0.42
Structure (SMILES): CC(=O)NCCSC(=O)[C@H](CC(C)C)NC(=O)[C@H](CCCN)NC(=O)[C@@H](NC(=O)[C@H](Cc1ccc(O)cc1)NC(=O)[C@H](CCC(N)=O)NC(=O)[C@H](CC(N)=O)NC(=O)[C@H](CC(N)=O)NC(=O)[C@H](Cc1ccccc1)NC(=O)[C@@H]1CCCN1C(=O)[C@H](N)Cc1ccccc1)C(C)C
